Each compound was assayed against [35S]-TBPS binding, rat brain cortical membranes (GABAA receptor) (assay: Steroid inhibition of [35S]-TBPS binding). Settings: 3 nM [35S]-TBPS, in the presence of 5 mM GABA, 90 min at room temp.
Procedure: Steroid Inhibition of TBPS Binding
[^35S]-t-Butylbicyclophosphorothionate (TBPS) binding assays using rat brain cortical membranes in the presence of 5 mM GABA has been described (Gee et al, J. Pharmacol. Exp. Ther. 1987, 241, 346-353; Hawkinson et al, Mol. Pharmacol. 1994, 46, 977-985; Lewin, A. H et al., Mol. Pharmacol. 1989, 35, 189-194).
Briefly, cortices are rapidly removed following decapitation of carbon dioxide-anesthetized Sprague-Dawley rats (200-250 g). The cortices are homogenized in 10 volumes of ice-cold 0.32 M sucrose using a glass/teflon homogenizer and centrifuged at 1500×g for 10 min at 4° C. The resultant supernatants are centrifuged at 10,000×g for 20 min at 4° C. to obtain the P2 pellets. The P2 pellets are resuspended in 200 mM NaCl/50 mM Na—K phosphate pH 7.4 buffer and centrifuged at 10,000×g for 10 min at 4° C. This washing procedure is repeated twice and the pellets are resuspended in 10 volumes of buffer. Aliquots ([…]) of the membrane suspensions are incubated with 3 nM [^35S]-TBPS and […] aliquots of test drug dissolved in dimethyl sulfoxide (DMSO) (final 0.5%) in the presence of 5 mM GABA. The incubation is brought to a final volume of 1.0 mL with buffer. Nonspecific binding is determined in the presence of […] and ranged from 15 to 25%. Following a 90 min incubation at room temp, the assays are terminated by filtration through glass fiber filters (Schleicher and Schuell No. 32) using a cell harvester (Brandel) and rinsed three times with ice-cold buffer. Filter bound radioactivity is measured by liquid scintillation spectrometry. Non-linear curve fitting of the overall data for each drug averaged for each concentration is done using Prism (GraphPad). […] The concentration of test compound producing 50% inhibition (IC50) of specific binding and the maximal extent of inhibition (Imax) are determined for the individual experiments with the same model used for the overall data and then the means±SEM.s of the individual experiments are calculated.
Various compounds are or can be screened to determine their potential as modulators of [^35S]-TBPS binding in vitro. These assays are or can be performed in accordance with the above
`CCC[C@@]1(O)CC[C@H]2[C@H](CC[C@@H]3[C@@H]2CC[C@]2(C)[C@@H](C(=O)Nc4ncc(C#N)cn4)CC[C@@H]32)C1` [Compound 90, (3R,5R,8R,9R,10S,13S,14S,17S)—N-(5-cyanopyrimidin-2-yl)-3-hydroxy-13-methyl-3-propylhexadecahydro-1H-cyclopenta[a]phenanthrene-17-carboxamide] was tested, and the IC50 was < 100 nM. With `COC[C@@]1(O)CC[C@H]2[C@H](CC[C@@H]3[C@@H]2CC[C@]2(C)[C@@H](C(=O)Nc4ccnc(C#N)n4)CC[C@@H]32)C1` [Compound 91, (3R,5R,8R,9R,10S,13S,14S,17S)—N-(2-cyanopyrimidin-4-yl)-3-hydroxy-3-(methoxymethyl)-13-methylhexadecahydro-1H-cyclopenta[a]phenanthrene-17-carboxamide] the IC50 was < 100 nM. `COC[C@@]1(O)CC[C@H]2[C@H](CC[C@@H]3[C@@H]2CC[C@]2(C)[C@@H](C(=O)Nc4nccc(C#N)n4)CC[C@@H]32)C1` [Compound 92, (3R,5R,8R,9R,10S,13S,14S,17S)—N-(4-cyanopyrimidin-2-yl)-3-hydroxy-3-(methoxymethyl)-13-methylhexadecahydro-1H-cyclopenta[a]phenanthrene-17-carboxamide] showed an IC50 of 100 to 1000 nM. In the case of `CCC[C@@]1(O)CC[C@H]2[C@H](CC[C@@H]3[C@@H]2CC[C@]2(C)[C@@H](C(=O)Nc4nccc(C#N)n4)CC[C@@H]32)C1` [Compound 93, (3R,5R,8R,9R,10S,13S,14S,17S)—N-(4-cyanopyrimidin-2-yl)-3-hydroxy-13-methyl-3-propylhexadecahydro-1H-cyclopenta[a]phenanthrene-17-carboxamide], the IC50 is reported as < 100 nM. With `COC[C@@]1(O)CC[C@H]2[C@H](CC[C@@H]3[C@@H]2CC[C@]2(C)[C@@H](C(=O)Nc4cc(C#N)ncn4)CC[C@@H]32)C1` [Compound 94, (3R,5R,8R,9R,10S,13S,14S,17S)—N-(6-cyanopyrimidin-4-yl)-3-hydroxy-3-(methoxymethyl)-13-methylhexadecahydro-1H-cyclopenta[a]phenanthrene-17-carboxamide] the IC50 was < 100 nM. With `COC[C@@]1(O)CC[C@H]2[C@H](CC[C@@H]3[C@@H]2CC[C@]2(C)[C@@H](C(=O)Nc4cncc(C#N)n4)CC[C@@H]32)C1` [Compound 95, (3R,5R,8R,9R,10S,13S,14S,17S)—N-(6-cyanopyrazin-2-yl)-3-hydroxy-3-(methoxymethyl)-13-methylhexadecahydro-1H-cyclopenta[a]phenanthrene-17-carboxamide] the IC50 was < 100 nM. For `C[C@@]1(O)CC[C@H]2[C@H](CC[C@@H]3[C@@H]2CC[C@]2(C)[C@@H](C(=O)Nc4ccccc4)CCC[C@@H]32)C1` [Compound 98, (1S,4aS,4bR,6aR,8R,10aS,10bR,12aS)-8-hydroxy-8,12a-dimethyl-N-phenyloctadecahydrochrysene-1-carboxamide], the IC50 was < 100 nM. `CC[C@]12CC[C@@](C)(O)C[C@H]1CC[C@H]1[C@@H]3CCC[C@H](C(=O)Nc4ccccc4)[C@@]3(C)CC[C@@H]12` [Compound 99, (1S,4aS,4bS,6aR,8R,10aS,10bS,12aS)-10a-ethyl-8-hydroxy-8,12a-dimethyl-N-phenyloctadecahydrochrysene-1-carboxamide] was tested, and the IC50 was < 100 nM. In the case of `CCOC[C@@]1(O)CC[C@@]2(CC)[C@H](CC[C@H]3[C@@H]4CCC[C@H](C(=O)Nc5cc(C)n(C)n5)[C@@]4(C)CC[C@@H]32)C1` [Compound 100, (4aS,4bS,6aR,8R,10aS,10bS,12aS)—N-(1,5-dimethyl-1H-pyrazol-3-yl)-8-(ethoxymethyl)-0a-ethyl-8-hydroxy-12a-methyloctadecahydrochrysene-1-carboxamide], the IC50 is reported as < 100 nM. With `CCOC[C@@]1(O)CC[C@@]2(CC)[C@H](CC[C@H]3[C@@H]4CCC[C@H](C(=O)Nc5cc(C)nn5C)[C@@]4(C)CC[C@@H]32)C1` [Compound 101, (1S,4aS,4bS,6aR,8R,10aS,10bS,12aS)—N-(1,3-dimethyl-1H-pyrazol-5-yl)-8-(ethoxymethyl)-10a-ethyl-8-hydroxy-12a-methyloctadecahydrochrysene-1-carboxamide] the IC50 was < 100 nM.

— patent US20230250129A1, “NEUROACTIVE STEROIDS AND COMPOSITIONS THEREOF” (Sage Therapeutics, Inc., priority 2020, published 2023)
